Source: ChEMBL document CHEMBL5291721, “A preclinical secondary pharmacology resource illuminates target-adverse drug reaction associations of marketed drugs” (Nat Commun, 2023)

What was measured:
[1] = target: T1, Alpha-2B adrenergic receptor (Homo sapiens, UniProt P18089)
T1 sequence (P18089 whole entry): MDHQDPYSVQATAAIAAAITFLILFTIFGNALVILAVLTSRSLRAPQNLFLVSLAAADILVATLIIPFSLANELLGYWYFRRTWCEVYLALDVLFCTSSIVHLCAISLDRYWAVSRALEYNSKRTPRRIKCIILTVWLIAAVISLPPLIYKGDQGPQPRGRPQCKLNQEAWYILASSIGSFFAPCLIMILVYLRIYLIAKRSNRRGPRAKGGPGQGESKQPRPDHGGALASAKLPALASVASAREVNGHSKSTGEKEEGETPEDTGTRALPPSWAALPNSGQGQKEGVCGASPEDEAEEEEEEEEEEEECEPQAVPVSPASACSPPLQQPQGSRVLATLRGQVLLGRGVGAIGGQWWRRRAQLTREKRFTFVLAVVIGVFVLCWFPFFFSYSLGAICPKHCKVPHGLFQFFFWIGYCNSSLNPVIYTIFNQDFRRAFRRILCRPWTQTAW

[2] = target: T2, Muscarinic acetylcholine receptor M1 (Homo sapiens, UniProt P11229); format: functional
T2 sequence (P11229 whole entry): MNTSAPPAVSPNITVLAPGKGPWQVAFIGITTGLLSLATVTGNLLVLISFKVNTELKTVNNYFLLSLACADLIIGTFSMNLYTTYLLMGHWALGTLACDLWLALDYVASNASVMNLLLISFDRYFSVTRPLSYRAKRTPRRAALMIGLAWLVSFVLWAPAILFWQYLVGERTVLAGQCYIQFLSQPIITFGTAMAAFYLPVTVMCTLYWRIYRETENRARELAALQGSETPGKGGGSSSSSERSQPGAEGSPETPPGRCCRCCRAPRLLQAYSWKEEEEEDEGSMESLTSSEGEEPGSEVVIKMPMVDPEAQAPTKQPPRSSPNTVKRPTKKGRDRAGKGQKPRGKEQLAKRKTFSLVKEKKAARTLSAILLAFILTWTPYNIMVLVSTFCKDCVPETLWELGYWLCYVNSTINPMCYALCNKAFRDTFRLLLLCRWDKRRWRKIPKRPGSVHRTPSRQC

Thromboxane A2 receptor = target: T3, Thromboxane A2 receptor (Homo sapiens, UniProt P21731)
T3 sequence (P21731 whole entry): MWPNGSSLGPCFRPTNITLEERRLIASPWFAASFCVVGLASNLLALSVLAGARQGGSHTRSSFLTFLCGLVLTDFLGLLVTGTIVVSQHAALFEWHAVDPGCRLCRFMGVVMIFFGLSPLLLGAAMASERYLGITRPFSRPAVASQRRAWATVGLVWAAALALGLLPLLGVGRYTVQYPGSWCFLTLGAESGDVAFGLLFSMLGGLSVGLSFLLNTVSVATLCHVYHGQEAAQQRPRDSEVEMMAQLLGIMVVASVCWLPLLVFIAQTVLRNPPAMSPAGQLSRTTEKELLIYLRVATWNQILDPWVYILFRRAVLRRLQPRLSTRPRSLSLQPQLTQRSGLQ

Progesterone receptor = target: T4, Progesterone receptor (Homo sapiens, UniProt P06401); format: functional
T4 sequence (P06401 whole entry): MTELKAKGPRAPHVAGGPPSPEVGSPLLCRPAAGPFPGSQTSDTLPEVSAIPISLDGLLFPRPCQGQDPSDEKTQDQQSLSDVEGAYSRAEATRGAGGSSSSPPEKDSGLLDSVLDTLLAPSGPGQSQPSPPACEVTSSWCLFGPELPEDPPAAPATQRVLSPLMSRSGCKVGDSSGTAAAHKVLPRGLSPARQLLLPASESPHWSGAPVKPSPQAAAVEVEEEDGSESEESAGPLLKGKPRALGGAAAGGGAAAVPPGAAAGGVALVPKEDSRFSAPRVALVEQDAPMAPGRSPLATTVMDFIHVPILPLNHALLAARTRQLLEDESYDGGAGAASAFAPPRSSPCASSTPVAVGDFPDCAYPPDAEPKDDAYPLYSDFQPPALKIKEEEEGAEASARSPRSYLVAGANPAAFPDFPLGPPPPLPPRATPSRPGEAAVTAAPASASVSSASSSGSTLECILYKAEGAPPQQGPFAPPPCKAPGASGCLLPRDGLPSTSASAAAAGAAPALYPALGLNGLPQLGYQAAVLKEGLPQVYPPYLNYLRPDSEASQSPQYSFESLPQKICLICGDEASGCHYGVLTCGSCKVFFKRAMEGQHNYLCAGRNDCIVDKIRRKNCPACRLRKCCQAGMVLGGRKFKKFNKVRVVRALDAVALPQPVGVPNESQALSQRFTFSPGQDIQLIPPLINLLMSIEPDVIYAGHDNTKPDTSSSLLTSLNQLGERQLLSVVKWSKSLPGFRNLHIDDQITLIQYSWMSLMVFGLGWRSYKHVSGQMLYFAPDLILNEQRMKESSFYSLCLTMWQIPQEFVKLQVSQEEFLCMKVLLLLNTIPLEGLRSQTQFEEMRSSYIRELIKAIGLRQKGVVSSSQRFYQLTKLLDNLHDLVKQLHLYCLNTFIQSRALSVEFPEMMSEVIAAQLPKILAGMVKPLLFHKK

[3] = target: Voltage-gated inwardly rectifying potassium channel KCNH2 (Homo sapiens, UniProt Q12809); format: functional; details: read-out: AC50
Chain of Voltage-gated inwardly rectifying potassium channel KCNH2 (Q12809 whole entry): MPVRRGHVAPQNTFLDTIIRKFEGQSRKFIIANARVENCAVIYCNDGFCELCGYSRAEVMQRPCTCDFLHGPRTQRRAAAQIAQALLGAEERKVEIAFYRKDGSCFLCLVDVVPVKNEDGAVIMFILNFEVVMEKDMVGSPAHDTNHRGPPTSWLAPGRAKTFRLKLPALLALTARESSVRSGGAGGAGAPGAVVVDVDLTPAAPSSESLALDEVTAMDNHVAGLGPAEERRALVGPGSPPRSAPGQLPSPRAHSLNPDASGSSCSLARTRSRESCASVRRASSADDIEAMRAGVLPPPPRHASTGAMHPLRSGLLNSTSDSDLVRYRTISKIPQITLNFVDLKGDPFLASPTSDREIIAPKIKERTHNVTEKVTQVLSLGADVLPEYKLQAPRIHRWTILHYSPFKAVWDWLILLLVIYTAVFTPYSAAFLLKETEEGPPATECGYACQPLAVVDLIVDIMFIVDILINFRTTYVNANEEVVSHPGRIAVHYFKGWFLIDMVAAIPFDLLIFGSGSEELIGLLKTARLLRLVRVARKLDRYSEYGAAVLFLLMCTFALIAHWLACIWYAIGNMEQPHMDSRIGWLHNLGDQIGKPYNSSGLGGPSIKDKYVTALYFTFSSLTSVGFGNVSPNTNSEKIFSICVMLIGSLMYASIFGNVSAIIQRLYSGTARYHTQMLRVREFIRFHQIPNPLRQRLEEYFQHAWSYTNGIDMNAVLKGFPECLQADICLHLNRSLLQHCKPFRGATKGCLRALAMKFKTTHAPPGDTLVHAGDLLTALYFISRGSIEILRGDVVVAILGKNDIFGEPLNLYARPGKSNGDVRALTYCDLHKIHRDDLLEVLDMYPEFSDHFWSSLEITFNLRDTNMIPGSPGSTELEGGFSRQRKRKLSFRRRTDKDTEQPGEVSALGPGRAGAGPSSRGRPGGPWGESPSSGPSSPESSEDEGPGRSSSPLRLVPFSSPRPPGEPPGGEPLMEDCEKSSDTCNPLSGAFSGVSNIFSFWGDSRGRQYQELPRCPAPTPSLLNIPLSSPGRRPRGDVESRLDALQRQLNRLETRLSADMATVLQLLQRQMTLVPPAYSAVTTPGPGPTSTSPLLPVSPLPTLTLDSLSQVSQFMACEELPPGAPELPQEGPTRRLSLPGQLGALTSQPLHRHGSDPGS

Vasopressin V2 receptor = Vasopressin V2 receptor (Homo sapiens, UniProt P30518)
Chain of Vasopressin V2 receptor (P30518 whole entry): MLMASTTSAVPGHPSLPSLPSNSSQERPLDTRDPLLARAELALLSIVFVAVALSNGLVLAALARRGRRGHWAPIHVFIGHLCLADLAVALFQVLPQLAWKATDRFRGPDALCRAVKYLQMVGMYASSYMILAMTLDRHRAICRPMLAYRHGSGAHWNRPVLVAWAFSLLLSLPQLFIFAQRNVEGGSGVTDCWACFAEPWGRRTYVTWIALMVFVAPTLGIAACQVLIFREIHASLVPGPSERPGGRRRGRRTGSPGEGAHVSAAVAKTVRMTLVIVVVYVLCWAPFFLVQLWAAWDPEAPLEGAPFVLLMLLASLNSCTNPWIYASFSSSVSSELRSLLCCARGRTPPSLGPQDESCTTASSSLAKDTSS

[4] = target: Kappa-type opioid receptor (Homo sapiens, UniProt P41145)
Chain of Kappa-type opioid receptor (P41145 whole entry): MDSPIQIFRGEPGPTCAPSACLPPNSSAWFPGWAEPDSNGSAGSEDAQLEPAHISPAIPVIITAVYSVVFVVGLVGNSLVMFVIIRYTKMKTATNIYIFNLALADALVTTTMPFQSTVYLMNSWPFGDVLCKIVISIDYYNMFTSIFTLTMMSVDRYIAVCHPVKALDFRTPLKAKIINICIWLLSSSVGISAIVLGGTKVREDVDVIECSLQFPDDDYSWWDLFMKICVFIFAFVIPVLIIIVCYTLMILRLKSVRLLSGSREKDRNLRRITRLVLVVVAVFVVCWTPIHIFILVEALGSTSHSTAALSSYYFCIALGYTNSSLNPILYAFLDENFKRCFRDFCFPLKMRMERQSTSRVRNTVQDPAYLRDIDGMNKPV

[5] = target: T5, Alpha-2A adrenergic receptor (Homo sapiens, UniProt P08913); format: functional, cell-based
T5 sequence (P08913 whole entry): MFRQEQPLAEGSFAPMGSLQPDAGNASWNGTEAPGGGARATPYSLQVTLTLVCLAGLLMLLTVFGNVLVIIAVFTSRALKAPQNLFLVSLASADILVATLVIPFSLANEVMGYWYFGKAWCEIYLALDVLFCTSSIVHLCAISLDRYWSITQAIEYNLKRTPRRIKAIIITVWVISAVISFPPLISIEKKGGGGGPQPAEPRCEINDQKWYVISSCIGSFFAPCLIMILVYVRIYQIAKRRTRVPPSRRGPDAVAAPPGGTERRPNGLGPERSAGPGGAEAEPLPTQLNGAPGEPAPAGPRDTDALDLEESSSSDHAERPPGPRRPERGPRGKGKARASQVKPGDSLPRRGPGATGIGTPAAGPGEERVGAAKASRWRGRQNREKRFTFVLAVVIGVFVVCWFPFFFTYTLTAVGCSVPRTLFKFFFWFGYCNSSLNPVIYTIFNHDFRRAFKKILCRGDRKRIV

[6] = target: Gamma-aminobutyric acid receptor subunit alpha-1 (Rattus norvegicus, UniProt P62813)
Chain of Gamma-aminobutyric acid receptor subunit alpha-1 (P62813 whole entry): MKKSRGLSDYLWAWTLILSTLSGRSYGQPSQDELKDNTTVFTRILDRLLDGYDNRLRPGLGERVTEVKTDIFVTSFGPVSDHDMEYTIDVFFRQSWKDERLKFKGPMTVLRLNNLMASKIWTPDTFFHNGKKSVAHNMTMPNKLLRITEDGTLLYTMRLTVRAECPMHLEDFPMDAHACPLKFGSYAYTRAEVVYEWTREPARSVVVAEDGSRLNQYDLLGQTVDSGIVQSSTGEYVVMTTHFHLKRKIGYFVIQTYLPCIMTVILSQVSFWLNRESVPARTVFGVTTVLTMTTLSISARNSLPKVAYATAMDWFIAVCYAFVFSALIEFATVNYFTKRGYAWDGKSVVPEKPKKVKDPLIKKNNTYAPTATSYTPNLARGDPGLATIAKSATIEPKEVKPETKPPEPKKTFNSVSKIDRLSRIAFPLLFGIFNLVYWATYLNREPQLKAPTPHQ

Cannabinoid receptor 1 = Cannabinoid receptor 1 (Homo sapiens, UniProt P21554); format: functional, cell-based
Chain of Cannabinoid receptor 1 (P21554 whole entry): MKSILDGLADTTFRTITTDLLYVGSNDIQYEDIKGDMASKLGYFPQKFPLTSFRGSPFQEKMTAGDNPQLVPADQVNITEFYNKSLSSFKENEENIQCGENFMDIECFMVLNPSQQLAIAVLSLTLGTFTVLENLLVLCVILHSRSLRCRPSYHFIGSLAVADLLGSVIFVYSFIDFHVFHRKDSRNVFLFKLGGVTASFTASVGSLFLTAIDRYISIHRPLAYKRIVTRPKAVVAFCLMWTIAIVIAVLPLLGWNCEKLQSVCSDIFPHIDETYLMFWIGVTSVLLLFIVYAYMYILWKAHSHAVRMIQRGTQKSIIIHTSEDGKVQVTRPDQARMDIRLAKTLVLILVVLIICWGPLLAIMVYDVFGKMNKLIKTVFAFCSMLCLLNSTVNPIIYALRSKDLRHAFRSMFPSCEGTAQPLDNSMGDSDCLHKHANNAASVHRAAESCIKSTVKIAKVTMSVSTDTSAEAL
Also: assay procedure not described here.

Structure (SMILES) | AC50 [1] | AC50 [2] | AC50 (Thromboxane A2 receptor) | AC50 (Progesterone receptor) | AC50 [3] | AC50 (Vasopressin V2 receptor) | AC50 [4] | AC50 [5] | AC50 [6] | AC50 (Cannabinoid receptor 1)
COC(=O)[C@H]1[C@H]2C[C@@H]3c4[nH]c5ccccc5c4CCN3C[C@H]2C[C@@H](OC(=O)c2cc(OC)c(OC)c(OC)c2)[C@@H]1OC [DESERPIDINE] | > 10 µM | > 10 µM | > 30 µM | > 30 µM | 2.45 µM | > 30 µM | 13.7 µM | > 10 µM | > 10 µM | 
CCC(=O)[C@@]1(C)[C@H](C)C[C@H]2[C@@H]3CCC4=CC(=O)C=C[C@]4(C)[C@H]3[C@@H](O)C[C@@]21C [RIMEXOLONE] | > 10 µM | > 10 µM | > 10 µM | 0.0032 µM | > 30 µM | > 10 µM | > 10 µM | > 10 µM | > 10 µM | 
OCC(CO)N[C@H]1C[C@](O)(CO)[C@@H](O)[C@H](O)[C@H]1O [VOGLIBOSE] | > 30 µM | > 30 µM | > 30 µM | > 30 µM | > 30 µM | > 30 µM | > 30 µM | > 30 µM | > 30 µM | 
O=C(O[C@H]1C[N+]2(CCCOc3ccccc3)CCC1CC2)C(O)(c1cccs1)c1cccs1 [ACLIDINIUM BROMIDE] | > 10 µM | 0.018 µM | > 30 µM |  | 0.43 µM | > 30 µM | 13.9 µM |  | > 10 µM | 
Cc1ccc(-c2ncc(Cl)cc2-c2ccc(S(C)(=O)=O)cc2)cn1 [ETORICOXIB] | > 10 µM | > 10 µM | > 10 µM |  | > 30 µM | > 30 µM | > 10 µM | > 10 µM | > 10 µM | > 30 µM
Cc1cnc(Nc2ccc(OCCN3CCCC3)cc2)nc1Nc1cccc(S(=O)(=O)NC(C)(C)C)c1 [FEDRATINIB] | > 10 µM | 1.2 µM | > 30 µM |  | 0.82 µM | > 30 µM | 15.4 µM | > 10 µM | > 10 µM | 
O=C(O)CCCC[C@@H]1SC[C@@H]2NC(=O)N[C@@H]21 [BIOTIN] | > 10 µM | > 10 µM | > 10 µM |  | > 30 µM | > 10 µM | > 10 µM | > 10 µM |  | 
CCN(CC)C(C)C(=O)c1ccccc1 (stereo unspecified) [DIETHYLPROPION] | 13 µM | > 10 µM | > 30 µM |  | 6.5 µM | > 30 µM | > 10 µM | > 10 µM | > 10 µM | > 30 µM
Oc1cc(O)c2c(c1)O[C@H](c1ccc(O)c(O)c1)[C@@H](O)C2 [CIANIDANOL] | > 10 µM | > 10 µM | > 30 µM |  | > 30 µM | > 30 µM | > 10 µM | > 10 µM | > 10 µM | > 30 µM
